The results in this text go back to US9815796B2 (Merck Sharp & Dohme Corp., priority 2013, dated 2017).

Assay [1] has as its target Rhesus PDE2A3 (Macaca mulatta, UniProt B3VTJ2). The experiment in a line: PDE2 fluorescence polarization (IMAP FP) inhibition assay, rhesus enzyme. In kind it is biochemical, rhesus macaque. The procedure, abridged: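 Rhesus PDE2A3 came from lysate of transiently transfected AD293 cells, diluted to give 20% substrate conversion. Substrate was 50 nM FAM-cAMP with 1 uM cGMP activator in Tris pH 7.2/MgCl2 buffer, run 60 min at room temperature over 10-point 3-fold dilutions in 1% DMSO. Read-out was IMAP fluorescence polarization (mP) after ≥1 h binding.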
(In general: Polarisation of emitted light reports the rotation of a fluorescent probe.)

In assay [2] the target is human PDE2A1 (Homo sapiens (Human), UniProt O00408). The experiment in a line: IMAP FP PDE selectivity panel, human PDE2A1. In kind it is biochemical. The procedure, abridged:
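GST-tagged human PDE2A1 expressed in insect cells, run at room temperature for 60 min with 50 nM FAM-cAMP containing 1000 nM cGMP, pH 7.2 Tris/MgCl2 buffer. IMAP fluorescence polarization read after binding step.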

Where [3] appears, read: Rhesus PDE2, Lab A, read-out: Rhesus PDE2 Ki (nM) - Lab A.
Setting [4] is: Human PDE2, Lab A, read-out: Human PDE2 Ki (nM) - Lab A.
Setting [5] is: Rhesus PDE2, Lab B, read-out: Rhesus PDE2 Ki (nM) - Lab B.
The mark [6] stands for this setting: Human PDE2, Lab B, read-out: Human PDE2 Ki (nM) - Lab B.

Where two headings read alike, the source gives them in different places.

human PDE2A1, sequence (O00408 other isoform, or with tags, fused parts or gaps): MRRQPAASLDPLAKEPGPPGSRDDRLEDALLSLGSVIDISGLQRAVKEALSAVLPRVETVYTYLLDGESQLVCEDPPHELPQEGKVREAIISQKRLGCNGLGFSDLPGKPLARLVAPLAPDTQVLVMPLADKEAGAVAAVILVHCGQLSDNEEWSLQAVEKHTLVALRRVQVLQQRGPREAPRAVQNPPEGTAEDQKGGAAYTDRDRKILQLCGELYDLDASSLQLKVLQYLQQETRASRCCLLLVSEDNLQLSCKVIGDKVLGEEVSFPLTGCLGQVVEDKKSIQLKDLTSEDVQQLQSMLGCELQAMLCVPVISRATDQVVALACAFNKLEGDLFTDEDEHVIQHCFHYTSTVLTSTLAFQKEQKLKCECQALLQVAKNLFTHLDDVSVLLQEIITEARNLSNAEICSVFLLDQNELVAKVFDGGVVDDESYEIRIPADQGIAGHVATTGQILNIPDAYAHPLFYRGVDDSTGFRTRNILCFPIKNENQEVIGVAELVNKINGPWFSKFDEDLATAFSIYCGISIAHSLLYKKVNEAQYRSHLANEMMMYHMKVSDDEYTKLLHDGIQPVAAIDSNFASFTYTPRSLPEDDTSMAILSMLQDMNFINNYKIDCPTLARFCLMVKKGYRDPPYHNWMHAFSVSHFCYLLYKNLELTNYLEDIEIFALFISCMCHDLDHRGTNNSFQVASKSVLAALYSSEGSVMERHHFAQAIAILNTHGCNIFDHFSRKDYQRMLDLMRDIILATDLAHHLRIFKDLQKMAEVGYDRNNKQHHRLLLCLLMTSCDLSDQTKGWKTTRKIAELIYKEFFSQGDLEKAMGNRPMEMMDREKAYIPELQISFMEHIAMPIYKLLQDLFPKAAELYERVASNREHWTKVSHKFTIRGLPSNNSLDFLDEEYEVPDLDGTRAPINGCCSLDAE
Rhesus PDE2A3, sequence (B3VTJ2 1-941): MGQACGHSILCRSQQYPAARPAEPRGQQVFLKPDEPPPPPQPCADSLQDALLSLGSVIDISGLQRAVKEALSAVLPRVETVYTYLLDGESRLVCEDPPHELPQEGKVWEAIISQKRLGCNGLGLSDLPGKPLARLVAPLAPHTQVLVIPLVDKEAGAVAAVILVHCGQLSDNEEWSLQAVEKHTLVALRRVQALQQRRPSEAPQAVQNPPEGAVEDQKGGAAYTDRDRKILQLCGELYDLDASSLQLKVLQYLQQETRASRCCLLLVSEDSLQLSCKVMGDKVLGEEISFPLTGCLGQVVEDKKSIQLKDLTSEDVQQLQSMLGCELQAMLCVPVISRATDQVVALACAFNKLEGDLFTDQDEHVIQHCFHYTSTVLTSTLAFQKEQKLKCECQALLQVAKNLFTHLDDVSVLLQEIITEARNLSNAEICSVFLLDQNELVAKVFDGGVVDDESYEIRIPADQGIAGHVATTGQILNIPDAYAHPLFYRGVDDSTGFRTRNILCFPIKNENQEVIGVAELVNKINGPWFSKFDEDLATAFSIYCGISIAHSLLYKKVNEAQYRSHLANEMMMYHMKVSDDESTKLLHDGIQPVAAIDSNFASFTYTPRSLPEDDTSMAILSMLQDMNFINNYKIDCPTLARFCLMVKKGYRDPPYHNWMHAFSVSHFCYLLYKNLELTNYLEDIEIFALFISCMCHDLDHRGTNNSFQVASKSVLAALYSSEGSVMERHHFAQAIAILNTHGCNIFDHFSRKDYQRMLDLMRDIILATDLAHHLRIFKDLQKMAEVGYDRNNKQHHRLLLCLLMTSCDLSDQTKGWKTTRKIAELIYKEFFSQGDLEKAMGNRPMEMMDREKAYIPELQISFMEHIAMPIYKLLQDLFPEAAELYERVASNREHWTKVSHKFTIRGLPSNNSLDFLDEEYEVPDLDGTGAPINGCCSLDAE

For the compound `CCc1c(C(=O)N[C@H](C)c2ccc(C(F)(F)F)cc2)nc[nH]c1=O` [Example 332, (R)-5-ethyl-6-oxo-N-(1-(4-(trifluoromethyl)phenyl)ethyl)-1,6-dihydropyrimidine-4-carboxamide], the results for the inhibition constant (Ki) in assay [1] (setting [3]) and in assay [2] (setting [4]) were 2900 nM and 2270 nM, respectively.

In the case of `Cc1nc(C(=O)N[C@@H](c2ccc(OC(F)F)cc2)C2CC2)cc(=O)[nH]1` [Example 610, N-{(R)-cyclopropyl[4-(difluoromethoxy)phenyl]methyl}-2-methyl-6-oxo-1,6-dihydropyrimidine-4-carboxamide], the Ki is 68 nM in assay [1] (setting [5]) and 70 nM in assay [2] (setting [6]).

As to `O=C(NC1(c2ccc(C(F)(F)F)c(F)c2)CC1)c1cc(=O)[nH]c(-c2ccccc2)n1` [Example 145, N-{1-[3-fluoro-4-(trifluoromethyl)phenyl]cyclopropyl}-6-oxo-2-phenyl-1,6-dihydropyrimidine-4-carboxamide], the Ki in assay [1] (setting [3]) is 2.9 nM; in assay [2] (setting [4]), 2.3 nM.

With `Cc1nc(C(=O)N[C@@H](c2ccc(C(F)(F)F)c(F)c2)C(C)(C)C)cc(=O)[nH]1` [Example 59], the Ki in assay [1] (setting [5]) was 6.4 nM; in assay [2] (setting [6]) it was 4.5 nM.

With `C[C@@H](NC(=O)c1cc(=O)[nH]c(-c2ccccc2)n1)c1ccc(C(F)(F)F)cc1` [Example 274, 6-oxo-2-phenyl-N-{(1R)-1-[4-(trifluoromethyl)phenyl]ethyl}-1,6-dihydropyrimidine-4-carboxamide], the Ki in assay [1] (setting [3]) and in assay [2] (setting [4]) was 6.7 nM each time.

For `COc1ccc(C(C)(C)c2nc(C(=O)N[C@@H](c3ccc(C(F)(F)F)cc3)C3CC3)cc(=O)[nH]2)cc1` [Example 502, N-{(R)-cyclopropyl[4-(trifluoromethyl)phenyl]methyl}-2-[1-(4-methoxyphenyl)-1-methylethyl]-6-oxo-1,6-dihydropyrimidine-4-carboxamide], the figures for the inhibition constant (Ki) in assay [1] (setting [5]) and in assay [2] (setting [6]) were 115 nM and 75 nM, respectively.

As to `CC(C)(C)[C@@H](NC(=O)c1cc(=O)[nH]c(-c2ncccn2)n1)c1ccc(C(F)(F)F)cc1` [Example 255, N-{(1R)-2,2-dimethyl-1-[4-(trifluoromethyl)phenyl]propyl}-6-oxo-1,6-dihydro-2,2′-bipyrimidine-4-carboxamide], the Ki was found to be 3.7 nM in assay [1] (setting [3]), 4.7 nM in assay [1] (setting [5]) and 4.9 nM in assay [2] (setting [6]).

Regarding `CC[C@@H](NC(=O)c1cc(=O)[nH]c(C)n1)c1ccc(SC(F)(F)F)cc1` [Example 29, 2-methyl-6-oxo-N-[(1R)-1-{4-[(trifluoromethyl)sulfanyl]phenyl}propyl]-1,6-dihydropyrimidine-4-carboxamide], the Ki in assay [1] (setting [3]) came to 9.2 nM; in assay [2] (setting [4]), 4.9 nM.

For `COc1ccc(Cc2nc(C(=O)N[C@@H](c3ccc(S(F)(F)(F)(F)F)cc3)C3CC3)cc(=O)[nH]2)cc1` [Example 468, N-{(R)-cyclopropyl[4-(pentafluoro-λ^6-sulfanyl)phenyl]methyl}-2-(4-methoxybenzyl)-6-oxo-1,6-dihydropyrimidine-4-carboxamide], the Ki stood at 2.8 nM in assay [1] (setting [5]) and 2.3 nM in assay [2] (setting [6]).

For the compound `Cc1nc(C(=O)NC2(c3ccc(C(C)(C)C)cc3)CC2)cc(=O)[nH]1` [Example 623, N-[1-(4-tert-butylphenyl)cyclopropyl]-2-methyl-6-oxo-1,6-dihydropyrimidine-4-carboxamide], the Ki is 29 nM in assay [1] (setting [5]) and 31 nM in assay [2] (setting [6]).

`Cc1nc(C(=O)N[C@H](C)c2ccc(-c3ccccc3F)cc2)cc(=O)[nH]1` [Example 324, N-[(1R)-1-(2′-fluorobiphenyl-4-yl)ethyl]-2-methyl-6-oxo-1,6-dihydropyrimidine-4-carboxamide]: the results for the Ki in assay [1] (setting [3]) and in assay [2] (setting [4]) were 131 nM and 138 nM, respectively.

`O=C(N[C@@H](c1ccc(SC(F)(F)F)c(F)c1)C1CC1)c1cc(=O)[nH]c(C2CC2)n1` [Example 434]: the Ki in assay [1] (setting [5]) came to 6.7 nM; in assay [2] (setting [6]), 7.9 nM.

For the compound `COCc1nc(C(=O)N[C@H](C)c2ccc(OC(F)(F)F)c(F)c2)cc(=O)[nH]1` [Example 126, N-{(1R)-1-[3-fluoro-4-(trifluoromethoxy)phenyl]-ethyl}-2-(methoxymethyl)-6-oxo-1,6-dihydropyrimidine-4-carboxamide], the inhibition constant (Ki) in assay [1] (setting [3]) was 48 nM; in assay [1] (setting [5]), 61 nM; in assay [2] (setting [4]), roughly 11 nM; in assay [2] (setting [6]), 64 nM.

As for `Cc1nc(C(=O)N[C@@H](c2ccc(OC(F)F)cc2)C(C)(C)C)cc(=O)[nH]1` [Example 62, (R)-N-(1-(4-(difluoromethoxy)phenyl)-2,2-dimethylpropyl)-2-methyl-6-oxo-1,6-dihydropyrimidine-4-carboxamide], the results for the Ki in assay [1] (setting [5]) and in assay [2] (setting [6]) were 9.8 nM and 8.3 nM, respectively.

Turning to `COc1cccc(Cc2nc(C(=O)N[C@H](C)c3ccc(C(F)(F)F)cc3)cc(=O)[nH]2)c1` [Example 140, 2-(3-methoxybenzyl)-6-oxo-N-{(1R)-1-[4-(trifluoromethyl)phenyl]ethyl}-1,6-dihydropyrimidine-4-carboxamide], the Ki in assay [1] (setting [3]) worked out at 6.5 nM; in assay [2] (setting [4]), 5.1 nM.

Take `Cc1nc(C(=O)NC(c2ccc(C(F)(F)F)cc2)c2nnn[nH]2)cc(=O)[nH]1` (centres unmarked) [Example 336, 2-Methyl-6-oxo-N-{1H-tetrazol-5-yl[4-(trifluoromethyl)phenyl]methyl}-1,6-dihydropyrimidine-4-carboxamide]: the inhibition constant Ki in assay [1] (setting [3]) stood at 60 nM; in assay [2] (setting [4]), 59 nM.

For `C[C@@H](NC(=O)c1cc(=O)[nH]c(-c2ncccn2)n1)c1cc(F)c(C(F)(F)F)c(F)c1` [Example 108, N-{(1R)-1-[3,5-difluoro-4-(trifluoromethyl)phenyl]ethyl}-6-oxo-1,6-dihydro-2,2′-bipyrimidine-4-carboxamide], the Ki was 25 nM in assay [1] (setting [3]), 33 nM in assay [1] (setting [5]), roughly 9.2 nM in assay [2] (setting [4]) and 39 nM in assay [2] (setting [6]).

Regarding `Cc1nc(C(=O)NC2(c3ccc(S(F)(F)(F)(F)F)cc3)CC2)cc(=O)[nH]1` [Example 622, 2-methyl-6-oxo-N-{1-[4-(pentafluoro-λ^6-sulfanyl)phenyl]cyclopropyl}-1,6-dihydropyrimidine-4-carboxamide], the values for the inhibition constant Ki in assay [1] (setting [5]) and in assay [2] (setting [6]) were 32 nM and 42 nM, respectively.

On to `Cc1nc(C(=O)N[C@@H](c2ccc(SC(F)(F)F)c(F)c2)C2CC2)cc(=O)[nH]1` [Example 55, N-[(R)-cyclopropyl{3-fluoro-4-[(trifluoromethyl)sulfanyl]phenyl}methyl]-2-methyl-6-oxo-1,6-dihydropyrimidine-4-carboxamide], for which the figures for the inhibitory constant (Ki) in assay [1] (setting [3]) and in assay [2] (setting [4]) were 11 nM and 7.8 nM, respectively.

For `O=C(N[C@@H](c1ccc(OC(F)F)cc1)C1CC1)c1cc(=O)[nH]c(-c2ccccc2)n1` [Example 448, N-{(R)-cyclopropyl[4-(difluoromethoxy)phenyl]methyl}-6-oxo-2-phenyl-1,6-dihydropyrimidine-4-carboxamide], the Ki was 13 nM in assay [1] (setting [5]) and 12 nM in assay [2] (setting [6]).

With `Cc1nc(C(=O)NC2(c3ccc(SC(F)(F)F)cc3)CCC2)cc(=O)[nH]1` [Example 49, 2-methyl-6-oxo-N-(1-{4-[(trifluoromethyl)sulfanyl]phenyl}cyclobutyl)-1,6-dihydropyrimidine-4-carboxamide], the Ki is 79 nM in assay [1] (setting [3]) and 45 nM in assay [2] (setting [4]).

In general, Ki refers to a dissociation constant, usually derived from enzyme kinetics or from competition with a known ligand.
